Test results: US8569511B2, “Substituted 3-(1H-benzo[d]imidazol-2-yl)-1H-indazole analogs as inhibitors of the PDK1 kinase” (University of Utah Research Foundation, priority 2011, dated 2013)
Like-named read-outs stand apart in the source and are kept apart here.

Experiments:
PDK1 = PDK1 (Homo sapiens (Human), UniProt O15530); assay: PDK1 ATP Depletion Kinase Assay (Kinase-Glo luminescence); type: biochemical; conditions: PDKtide substrate, read-out: PDK1 Kinase assays (IC50, μM) Activity Assay
Description: Test compounds were diluted to desired concentrations in kinase reaction buffer and briefly incubated with human recombinant PDK1 kinase which is histidine-tagged (Invitrogen Corporation, Carlsbad, Calif.). The reaction was subsequently initiated by the addition of ATP and PDKtide substrate (Millipore Corporation, Billerica, Massachussetts). […] After an incubation of 60 minutes at room temperature, 10 μl of the Kinase-Glo reagent (Promega Corporation, Madison, Wis.) was added to each well and incubated for an additional 10 minutes. Luminescence was measured on an EnVision microplate reader (PerkinElmer). The amount of luminescence from each reaction is inversely correlated with PDK1 kinase activity. Percent inhibition and IC50 values can be calculated by comparing enzyme activity in drug-treated wells to the appropriate controls, e.g. vehicle control.
IC50 values are determined using GraphPad Prism 5 software. The data were entered as an X-Y plot into the software as percent inhibition for each concentration of the drug. The concentration values of the drug were log transformed and the nonlinear regression was carried out using the “sigmoidal dose-response (variable slope)” option within the GraphPad software to model the data and calculate IC50 values.

[1] = Pharmacokinetics in mice (iv and po); type: in vivo; conditions: for Vd: read-out: Vss
Description: Pharmacokinetic parameters were determined by dosing mice by oral (“po”) and intravenous (“iv”) administration of two representative disclosed compounds.
The vehicle was 1% DMSO, 10% ethanol, 35% PEG 400, and the balance H2O. Blood was collected (about 50 μl per individual animal) into heparin-containing collection tubes, and cells were removed by centrifugation. The concentration of compound was determined at the indicated time points for each sample using mass spectrometry. […] PK parameters were calculated using WinNonLin (Pharsight Products, Saint Louis, Mo.). […] The level detected at 0.08 hr was 9 ng/ml±5.0 ng/ml.
Vehicle, sample collection and analysis is as described above.

AN3-CA cells = assay: Mouse subcutaneous xenograft tumor model, tumor volume; type: in vivo, athymic nude mice; conditions: 50 mg/kg IP, daily Monday through Friday for two weeks
Description: (§1) The in vivo effects of compounds were determined in a mouse subcutaneous xenograft tumor model wherein AN3-CA cells were implanted subcutaneously into the hind flank of athymic nude mice. Briefly, seven-week-old mice were injected with 2×10^6 AN3-CA cells on the right hind flank. […] The vehicle for these studies was 20% DMSO, 20% cremophor, and 60% water. The test compound was administered on daily schedule (Monday through Friday) for two weeks at a concentration of 50 mg/kg by intraperitoneal (“IP”) injection. The mice were sacrificed and the tumors were excised for western blot analysis. Tumor volume was determined using the formula L×W2×0.5, where L is the longest length, and W is the shortest length. Tumor volume and body weight was measured twice a week.
(§2) The study was carried out as described above for 2,2-difluoro-N-(3-(5-morpholino-1H-benzo[d]imidazol-2-yl)-1H-indazol-5-yl)cyclopropanecarboxamide, except that the test compound used was 2,2-difluoro-N-(3-(5-(2-methylmorpholino)-1H-benzo[d]imidazol-2-yl)-1H-indazol-5-yl)cyclopropanecarboxamide. Data are shown in FIGS. 10A and 10B for the effect of the compound on tumor volume and body weight, respectively.

[2] = tested on: phosphorylation of the ribosomal protein s6 in AN3-CA cells; assay: In-cell western, phosphorylation of ribosomal protein s6; type: cell-based; conditions: Homo sapiens, 2 hours
Description: Cells were washed with PBS and whole cell lysates were prepared by incubating cells in […] (Invitrogen Corporation, Carlsbad, Calif.) supplemented with Protease Inhibitor Cocktail (Roche Applied Science, a division of Roche Diagnostics Corporation, Indianapolis, Ind.) and Phosphatase Inhibitor Cocktail (Roche) on ice for 30 minutes. After centrifuging the lysates at 12,000 rpm for 10 minutes at 4° C., the supernatant was collected. Protein concentration was determined using BCA Assay. The same amounts of protein were run on NuPAGE 4-12% Bis-Tris Gel, and then transferred onto a PVDF membrane. After blocking with Odyssey Blocking Buffer for 1 hour at room temperature, the membrane was incubated with primary antibodies (Cell Signaling Technology, Inc., Danvers, Massachussetts) overnight at 4° C. followed by 40 minute incubation with IRDye secondary antibody. The membrane was scanned using Odyssey Infrared Imaging System. […]
Briefly, ribosomal protein S6 was detected using differentially labeled antibodies specific for either total S6 protein or the phosphorylated form of the protein. In-cell detection with visual overlay of the signals for each antibody, e.g. total ribosomal protein s6 (red) and phospho-ribosomal protein s6 (green), allowed simultaneous detection and quantitation. Quantitation of signal intensity allowed determination of IC50 values for the test compounds.

[3] = Mouse xenograft study, body weight; type: in vivo, athymic nude mice; conditions: 50 mg/kg IP, daily Monday through Friday for two weeks
Description: as §1, §2

HS578T cell line = assay: Cell viability after PTEN shRNA knockdown; type: cell-based; conditions: Homo sapiens, Hs-578T
Description: The lentiviral particles with PTEN shRNA or scrambled siRNA (ssi RNA) were purchased from Thermo Scientific. The cells were seeded in a 24-well plate and incubated overnight in RPMI full media. The media was removed and the cells were transfected with either siRNA or ssiRNA particles in serum/antibiotic free RPMI media. Six hours post-transduction, 1 ml of full media (serum plus penicillin/streptomycin) was added and the cells were incubated overnight. At 48 hours post-transduction fresh media with puromycin was added. The media was replaced with fresh puromycin containing media every 2 days. qPCR and western blot analysis was used to evaluate the level of PTEN knockdown.
AN3-CA (PTEN-deficient), RL95-2 (PTEN-deficient), and HEC-1A (PTEN-wild type) cells were plated in 45 μl of RPMI-1640 media supplemented with 10% FBS and 1% Pen/Strep at a density of 1000 cells per well in white 384-well plates. Cells were allowed to attach by incubation overnight at 37° C. and 5% CO2. Test compounds were diluted to 10× concentrations in RPMI-1640 media (containing 3% DMSO) and 5 μl 1 of these dilutions were added in triplicate to the appropriate wells containing the cells. The plates containing the drug-treated cells and appropriate controls were incubated for 96 hours. At the end of the incubation, 40 μl of ATP-lite (PerkinElmer, Inc., Waltham, Massachussetts) reagent were added to each well and luminescence signal was measured on an EnVision microplate reader.
In the figures, cell viability is shown as “Toxicity” and the cell viability assay was carried out as described above.

[4] = PTEN knockdown shRNA, read-out: IC50 for cell viability, PTEN knockdown shRNA cells
[5] = mouse, plasma, po (Table VIII, dose not given)

Chain of PDK1 (O15530 whole entry): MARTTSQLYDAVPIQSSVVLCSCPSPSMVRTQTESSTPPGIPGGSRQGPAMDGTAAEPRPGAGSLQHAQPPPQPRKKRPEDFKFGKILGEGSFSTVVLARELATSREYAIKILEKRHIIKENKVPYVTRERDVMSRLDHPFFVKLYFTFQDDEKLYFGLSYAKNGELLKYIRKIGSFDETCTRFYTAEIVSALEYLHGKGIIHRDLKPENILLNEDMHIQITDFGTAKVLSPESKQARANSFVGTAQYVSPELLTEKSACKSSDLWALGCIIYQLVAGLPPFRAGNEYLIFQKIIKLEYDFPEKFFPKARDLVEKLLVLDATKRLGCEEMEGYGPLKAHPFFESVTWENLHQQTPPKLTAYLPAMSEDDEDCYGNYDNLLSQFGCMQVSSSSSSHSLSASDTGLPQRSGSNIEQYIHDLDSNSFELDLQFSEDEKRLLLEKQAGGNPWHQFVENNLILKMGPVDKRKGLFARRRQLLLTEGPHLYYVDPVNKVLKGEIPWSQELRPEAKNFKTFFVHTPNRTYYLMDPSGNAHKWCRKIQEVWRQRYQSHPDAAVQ

Compound `CC1CN(c2ccc3nc(-c4n[nH]c5ccc(NC(=O)C6CC6(F)F)cc45)[nH]c3c2)CCO1` (stereo not shown) [Compound 2, 2,2-difluoro-N-(3-(5-(2-methylmorpholino)-1H-benzo[d]imidazol-2-yl)-1H-indazol-5-yl)cyclopropanecarboxamide] has an IC50 (PDK1) of 0.159 µM, an AUC(0-t) ([1]; mouse, plasma, iv, 5.0 mg/kg) of 1280 ng·h/mL and a Cmax ([1]; mouse, plasma, iv, 5.0 mg/kg) of 4530 ng/mL. The Tmax ([1]; mouse, plasma, iv, 5.0 mg/kg) was 4.8 min, the clearance ([1]; mouse, plasma, iv, 5.0 mg/kg) was 65 mL/min/kg and the half-life ([1]; mouse, plasma, iv, 5.0 mg/kg) was 24 min. For the same compound, the Vd ([1]; mouse, plasma, iv, 5.0 mg/kg) was 0.63 L/kg, the AUC(0-t) ([1]; mouse, plasma, po, 30 mg/kg) was 244 ng·h/mL and the Cmax ([1]; mouse, plasma, po, 30 mg/kg) was 53 ng/mL. For the same compound, the Tmax ([1]; mouse, plasma, po, 30 mg/kg) was 15 min, the bioavailability ([1]; mouse, plasma, po, 30 mg/kg) was 19% and the “Effect on tumor burden (tumor volume) compared to the vehicle control” value (AN3-CA cells) was “profound and significant effect on tumor burden”. For the same compound, the IC50 [2] was 76.7 nM, the “Effect on body weight” value [3] was “did not appear to cause any body weight loss” and the IC50 (HS578T cell line; [4]) was 800 nM. It also gave an IC50 (HS578T cell line; control (scrambled) treated cells, read-out: IC50 for cell viability, control treated cells) of 2200 nM.

`O=C(Nc1ccc2[nH]nc(-c3nc4ccc(N5CCOCC5)cc4[nH]3)c2c1)C1CC1(F)F` (stereo not shown) [Compound 1, 2,2-difluoro-N-(3-(5-morpholino-1H-benzo[d]imidazol-2-yl)-1H-indazol-5-yl)cyclopropanecarboxamide] gave an IC50 (PDK1) of 0.143 µM, an AUC(0-t) ([1]; mouse, plasma, iv, 5.0 mg/kg) of 516 ng·h/mL and a Cmax ([1]; mouse, plasma, iv, 5.0 mg/kg) of 1840 ng/mL. For the same compound, the Tmax ([1]; mouse, plasma, iv, 5.0 mg/kg) was 4.8 min, the clearance ([1]; mouse, plasma, iv, 5.0 mg/kg) was 161 mL/min/kg and the half-life ([1]; mouse, plasma, iv, 5.0 mg/kg) was 24 min. It also gave a Vd ([1]; mouse, plasma, iv, 5.0 mg/kg) of 1.6 L/kg, a Cmax [1, 5] of 9 ng/mL and a Tmax [1, 5] of 15 min. For the same compound, the concentration at 0.08 hr ([1]; mouse, plasma, po, at 0.08 hr, read-out: Level detected after oral administration) was 9 ng/mL, the “Level after oral administration (in words)” value ([1]; po, after 0.08 hr) was “below the limit of detection” and the “Effect on tumor burden (tumor volume) compared to the vehicle control” value (AN3-CA cells) was “modest effect on tumor burden”. For the same compound, the IC50 [2] was 75.6 nM, the “Effect on body weight” value [3] was “did not appear to cause any body weight loss” and the IC50 (HS578T cell line; [4]) was 1200 nM.
